Reference: patent US20180051284A1, “INHIBITORS OF MIR-17-92 CLUSTER FOR ANTI-TUMOR ACTIVITY IN MULTIPLE MYELOMA AND OTHER MALIGNANCIES” (priority 2014, published 2018)
l = locked nucleic acid (LNA); d = 2'-deoxy (DNA)

Columns and labels:
Assay type in all cases: cell-based, Human
[1] = tested on: miR-17-92 primary transcript (pri-miRs) and mature miR-17-92 cluster members; assay: q-RT-PCR of miR-17-92 member family and two pri-miRs after transfection of MM cells; details: 48 hours after transfection with 25 nM
Description: (§1) 3×10^5 cells were transfected using Neon Transfection System (Invitrogen, Calif.,U.S.), (2 pulses at 1150, 30ms). The transfection efficiency evaluated by flow-cytometric analysis relative to a FAM dye—labeled anti-miR—negative control reached 85% to 90%.
Reverse transcription (RT) of both primary and mature miRNAs was performed using TaqMan® MicroRNA Assays, following a procedure for multiplexing the RT step (Life Technologies, Publication Part Number 4465407). Briefly, 500 ng of total RNA, prepared with the TRIzol® Reagent (Invitrogen), underwent reverse transcription by the Taq-Man® MicroRNA RT Kit. In this reaction, the RT primer pool was composed by the individual RT primers for each microRNA belonging to the miR-17-92 cluster and two RT primers to allow the reverse transcription of the miR-17-92 primary miRNA. Real-time PCR was performed using TaqMan® MicroRNA Assays together with the TaqMan® Universal PCR Master Mix on an ViiA7 System (Life Technologies). Both primary and mature microRNAs expressions were relatively quantified using the 2-ΔΔCt method (Applied Biosystems User Bulletin No. 2), and expressed as the relative quantity of target miRNA normalized to the RNU44 (assay ID 001094) housekeeping gene. Comparative real-time polymerase chain reaction (RT-PCR) was performed in triplicate, including no-template controls. Relative expression was calculated using the comparative cross threshold (Ct) method.
By the use of a custom q-RT-PCR plate specifically designed by us to detect all six mature miR-17-92 members and the primary transcript by two different assays (pri-mir-17/18a/19a and pri-mir-19b1/20a/92a1), we quantified in a panel of 11 MM cell lines the levels of the different miRNAs and pri-miRs.

[2] = tested on: RPMI-8226, KMS-12-BM and NCI-H929 MM cells; assay: AnnexinV/7-AAD staining apoptosis after transfection; details: transfection with 25 nM; 48 hours
Description: as §1
(§2) 7-aminoactinomycin was used to evaluate cell viability. The staining was performed according to manufacturer's instructions.

[3] = tested on: AMO1 cells; assay: Combination with proteasome inhibitors or melphalan, 7-AAD cell viability, combination index; details: for CI value of combination with Bortezomib / CI value of combination with Carfilzomib / CI value of combination with Melphalan: AMO1, 6 days
Description: Bortezomib (PS-341, catalog n° S1013) and Carfilzomib (PR-171, catalog n°S2853) were purchased from Selleck. Combination between miR-17-92 LNA gapmer_06 and proteasome inhibitors was tested in AMO1 cells. 1×10^3 cells were plating in 96-well plates. Bortezomib was used at concentrations ranging from 2 nM to 3.5 nM. Carfilzomib was used at concentrations ranging from 0.4 to 0.7 nM. Measurement of synergistic index (SI) was determined with the following formula: SI=(effect induced by miR-17-92 LNA gapmers and proteasome inhibitors in combination)/effect of miR-17-92 LNA gapmers) +(effect of proteasome inhibitors). Interactions were considered synergistic when the SI was >1.
Melphalan was purchased from Sigma Aldrich (catalog n°M2011). Combination between miR-17-92 LNA gapmer_06 and melphalan was tested in AMO1 cells. Cell number at plating was 1×10^3 in 96-well plates. Melphalan was used at concentrations ranging from 0.5 μM to 2 μM. Measurement of synergistic index (SI) was determined with the following formula: SI=(effect induced by miR-17-92 LNA gapmers and melphalan in combination)/(effect of miR-17-92 LNA gapmers)+(effect of melphalan). Interactions were considered synergistic when the SI was >1.
as §2
AMO1 cells were exposed for 6 days to LNA gapmers_06 or each of Bortezomib, Carfilzomib, Melphalan or to combinations of LNA gapmer_06 and each of these drugs.
Cells viability was calculated by flow cytometric analysis of 7-AAD staining and the percentage of living cell was compared to the untreated cells.
In Tables 3-5 tests with the respective combinations performed simultaneously are reported. The effect of LNA gapmer_06 was determined separately for Bortezomib, Carfilzomib, and Melphalan explaining the slightly different values. CI (combination index) values are shown (CI<1 synergism, CI=1 additive, […]). For each monotherapy different doses and combinations were tested. Combination index were calculated using the CalcuSyn software.

gapmer_06: LNA/DNA gapmer, SEQ ID 4 (14 mer): +T*+A*+C*T*T*G*C*T*T*G*G*+C*+T*+T; + LNA, * phosphorothioate (antisense TACTTGCTTGGCTT; sugars from the 5' end l3 d8 l3, all phosphorothioate, methylation of C not given here)
downregulation of primary and mature miRNA sequences (q-RT-PCR) ([1]; NCI-H929 and RPMI-8226 cells, relative to RNase-free water): more effective gapmer to downregulate both primary and mature miRNA sequences
downregulation of pri-miRs and miR-17-92 cluster members (q-RT-PCR) ([1]; NCI-H929 cells, vs RNase-free water): induce downregulation of the two primary transcript and mature single miRNA members
apoptosis (AnnexinV/7-AAD staining) [2]: increased apoptosis
interaction with Bortezomib to induce cell death ([3]; AMO1 cells, 6 days, combination with Bortezomib): synergizes
interaction with Carfilzomib to induce cell death ([3]; AMO1 cells, 6 days, combination with Carfilzomib): synergizes
interaction with Melphalan to induce cell death ([3]; AMO1 cells, 6 days, combination with Melphalan): synergizes
CI value of combination with Bortezomib ([3]; Bortezomib 0.0035 μm + miR-17-92 LNA gapmer 0.5 μl): 0.759
CI value of combination with Bortezomib ([3]; Bortezomib 0.0035 μm + miR-17-92 LNA gapmer 0.75 μl): 0.418
CI value of combination with Bortezomib ([3]; Bortezomib 0.0035 μm + miR-17-92 LNA gapmer 1 μl): 0.342
CI value of combination with Bortezomib ([3]; Bortezomib 0.0035 μm + miR-17-92 LNA gapmer 1.25 μl): 0.036
CI value of combination with Carfilzomib ([3]; Carfilzomib 0.0004 μm + miR-17-92 LNA gapmer 1.25 μl): 0.89
CI value of combination with Carfilzomib ([3]; Carfilzomib 0.0005 μm + miR-17-92 LNA gapmer 1.25 μl): 0.55
CI value of combination with Carfilzomib ([3]; Carfilzomib 0.0006 μm + miR-17-92 LNA gapmer 1.25 μl): 0.50
CI value of combination with Carfilzomib ([3]; Carfilzomib 0.0007 μm + miR-17-92 LNA gapmer 1.25 μl): 0.39
CI value of combination with Melphalan ([3]; Melphala 1.5 μm + miR-17-92 LNA gapmer 0.5 μl): 0.78
CI value of combination with Melphalan ([3]; Melphala 1.5 μm + miR-17-92 LNA gapmer 0.75 μl): 0.99
CI value of combination with Melphalan ([3]; Melphala 1.5 μm + miR-17-92 LNA gapmer 1 μl): 0.65
CI value of combination with Melphalan ([3]; Melphala 1.5 μm + miR-17-92 LNA gapmer 1.25 μl): 0.56
CI value of combination with Melphalan ([3]; Melphala 1.75 μm + miR-17-92 LNA gapmer 0.5 μl): 0.66
CI value of combination with Melphalan ([3]; Melphala 1.75 μm + miR-17-92 LNA gapmer 0.75 μl): 0.89
CI value of combination with Melphalan ([3]; Melphala 1.75 μm + miR-17-92 LNA gapmer 1 μl): 0.56
CI value of combination with Melphalan ([3]; Melphala 1.75 μm + miR-17-92 LNA gapmer 1.25 μl): 0.47
CI value of combination with Melphalan ([3]; Melphala 2 μm + miR-17-92 LNA gapmer 0.5 μl): 0.51
CI value of combination with Melphalan ([3]; Melphala 2 μm + miR-17-92 LNA gapmer 0.75 μl): 0.59
CI value of combination with Melphalan ([3]; Melphala 2 μm + miR-17-92 LNA gapmer 1 μl): 0.46
CI value of combination with Melphalan ([3]; Melphala 2 μm + miR-17-92 LNA gapmer 1.25 μl): 0.26
